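Method: 48-hour compound exposure of cells in 96-well plates, five concentrations, linear interpolation of endpoints. The concentration for 50% growth inhibition is given as GI50.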 The source made the active and inactive calls. Cut-off read from the data, not from the text of the source: active = GI50 up to about 1.1 µM and inactive = higher.
How the values were obtained:
Experiment in all cases: NCI anticancer screen, dose series, 48 h
MDA-MB-435 = test system: MDA-MB-435
K562 = test system: K562
BT-549 = test system: BT-549
A549 = test system: A549
Malme-3M = test system: Malme-3M
SF-268 = test system: SF-268
LOX IMVI = test system: LOX IMVI
MDA-N = test system: MDA-N
HOP-92 = test system: HOP-92
SNB-75 = test system: SNB-75
SK-MEL-2 = test system: SK-MEL-2
UACC-257 = test system: UACC-257
SF-295 = test system: SF-295
Hs-578T = test system: Hs-578T
HCT-116 = test system: HCT-116
SK-MEL-5 = test system: SK-MEL-5
HL-60 = test system: HL-60
SF-539 = test system: SF-539
SK-MEL-28 = test system: SK-MEL-28
NCI-H522 = test system: NCI-H522

SMILES	GI50 (MDA-MB-435)	GI50 (K562)	GI50 (BT-549)	GI50 (A549)	GI50 (Malme-3M)	GI50 (SF-268)	GI50 (LOX IMVI)	GI50 (MDA-N)	GI50 (HOP-92)	GI50 (SNB-75)	GI50 (SK-MEL-2)	GI50 (UACC-257)	GI50 (SF-295)	GI50 (Hs-578T)	GI50 (HCT-116)	GI50 (SK-MEL-5)	GI50 (HL-60)	GI50 (SF-539)	GI50 (SK-MEL-28)	GI50 (NCI-H522)
Cc1c(C#N)c2nnn(-c3ccccc3)c(=O)n2c1-c1ccccc1	0.307 µM (active)	0.236 µM (active)	5.42 µM (inactive)	1.29 µM (inactive)	26.5 µM (inactive)	7.85 µM (inactive)	4.12 µM (inactive)	0.179 µM (active)	31.3 µM (inactive)	2.95 µM (inactive)	4.53 µM (inactive)	25.4 µM (inactive)	0.752 µM (active)	4.51 µM (inactive)	0.619 µM (active)	0.471 µM (active)	0.376 µM (active)	1.17 µM (inactive)	–	–
CC(C)CCCC(C)[C@H]1CC[C@H]2NCCCC[C@]12C (stereo partly drawn)	2.01 µM (inactive)	2.01 µM (inactive)	9.38 µM (inactive)	6.64 µM (inactive)	4.61 µM (inactive)	13.1 µM (inactive)	1.85 µM (inactive)	1.96 µM (inactive)	3.48 µM (inactive)	6.03 µM (inactive)	2.88 µM (inactive)	3.83 µM (inactive)	2.33 µM (inactive)	6.82 µM (inactive)	3.03 µM (inactive)	1.6 µM (inactive)	1.93 µM (inactive)	5.92 µM (inactive)	2.37 µM (inactive)	–
Cc1csc2n(C)c(=O)c3ccccc3[n+]12	> 100 µM (inactive)	> 100 µM (inactive)	79.4 µM (inactive)	> 100 µM (inactive)	–	> 100 µM (inactive)	> 100 µM (inactive)	> 100 µM (inactive)	–	–	> 100 µM (inactive)	> 100 µM (inactive)	> 100 µM (inactive)	> 100 µM (inactive)	> 100 µM (inactive)	98.4 µM (inactive)	> 100 µM (inactive)	> 100 µM (inactive)	> 100 µM (inactive)	> 100 µM (inactive)
COc1ccc(CSc2ccccc2Cn2cccc2)cc1OC	> 100 µM (inactive)	27 µM (inactive)	46 µM (inactive)	98.2 µM (inactive)	28.3 µM (inactive)	> 100 µM (inactive)	73.5 µM (inactive)	> 100 µM (inactive)	–	> 100 µM (inactive)	–	27.8 µM (inactive)	25.5 µM (inactive)	–	89.1 µM (inactive)	22.4 µM (inactive)	20.7 µM (inactive)	> 100 µM (inactive)	> 100 µM (inactive)	–
O=C(Nc1cc(Cl)c(I)c(Cl)c1)C(F)(F)F	30.3 µM (inactive)	28.2 µM (inactive)	25.9 µM (inactive)	–	> 10 µM (inactive)	27.1 µM (inactive)	–	35.8 µM (inactive)	20.3 µM (inactive)	20.8 µM (inactive)	–	45.6 µM (inactive)	33.3 µM (inactive)	22.4 µM (inactive)	24.5 µM (inactive)	18.7 µM (inactive)	19.2 µM (inactive)	> 10 µM (inactive)	25.2 µM (inactive)	21.7 µM (inactive)
COC(=O)C(CCSC)NC(=O)CNC(=O)CSc1nnc(COc2ccc(Cl)cc2)n1-c1ccccc1 (stereo not drawn)	17.9 µM (inactive)	26.5 µM (inactive)	16.9 µM (inactive)	41.3 µM (inactive)	18 µM (inactive)	17.1 µM (inactive)	11.6 µM (inactive)	18.6 µM (inactive)	17.6 µM (inactive)	19.1 µM (inactive)	15.4 µM (inactive)	18.3 µM (inactive)	–	22.3 µM (inactive)	16.9 µM (inactive)	17.3 µM (inactive)	19.3 µM (inactive)	18.7 µM (inactive)	17.5 µM (inactive)	–
Oc1cccc(/C=N/N=c2/[nH][nH]/c(=N/N=C/c3cccc(O)c3)c3ccccc23)c1	22.9 µM (inactive)	18.3 µM (inactive)	18.5 µM (inactive)	21.4 µM (inactive)	15.5 µM (inactive)	26.6 µM (inactive)	11.7 µM (inactive)	–	15.9 µM (inactive)	12.9 µM (inactive)	22.6 µM (inactive)	29.9 µM (inactive)	13.5 µM (inactive)	18.7 µM (inactive)	11.5 µM (inactive)	0.933 µM (active)	–	16.9 µM (inactive)	21.8 µM (inactive)	17.3 µM (inactive)
COc1cc(/C=C2\N=C(C)N(n3c(-c4ccccc4)nc4ccccc4c3=O)C2=O)cc(OC)c1OC	> 100 µM (inactive)	> 100 µM (inactive)	> 100 µM (inactive)	> 100 µM (inactive)	> 100 µM (inactive)	> 100 µM (inactive)	> 100 µM (inactive)	> 100 µM (inactive)	–	> 100 µM (inactive)	–	> 100 µM (inactive)	> 100 µM (inactive)	> 100 µM (inactive)	> 100 µM (inactive)	> 100 µM (inactive)	> 100 µM (inactive)	> 100 µM (inactive)	> 100 µM (inactive)	46.3 µM (inactive)
COC(=O)Cc1ccc2c(c1)Sc1ccc(CC(=O)OC)cc1N2C	6.4 µM (inactive)	6.75 µM (inactive)	16.1 µM (inactive)	24 µM (inactive)	23.8 µM (inactive)	38.3 µM (inactive)	14.3 µM (inactive)	–	24.6 µM (inactive)	> 47.2 µM (inactive)	51.4 µM (inactive)	30.5 µM (inactive)	22.8 µM (inactive)	39.3 µM (inactive)	24.1 µM (inactive)	12.3 µM (inactive)	20.7 µM (inactive)	36.3 µM (inactive)	38.3 µM (inactive)	9.75 µM (inactive)
O=c1oc2c(Cl)cc(Cl)cc2cc1C1=CSC2=NCCN12	32 µM (inactive)	34.4 µM (inactive)	26 µM (inactive)	64.3 µM (inactive)	–	–	59.8 µM (inactive)	36.2 µM (inactive)	28.6 µM (inactive)	65.8 µM (inactive)	> 100 µM (inactive)	> 100 µM (inactive)	40 µM (inactive)	–	31 µM (inactive)	27.4 µM (inactive)	30.3 µM (inactive)	> 100 µM (inactive)	47.1 µM (inactive)	–
COC(=O)[C@H](Cc1c[nH]c2ccccc12)NC(=O)c1ccc(CNC(=O)/C=C/c2cccc(Oc3ccccc3)c2)cc1	5.7 µM (inactive)	63.5 µM (inactive)	39.9 µM (inactive)	92.9 µM (inactive)	22.8 µM (inactive)	> 100 µM (inactive)	–	5.38 µM (inactive)	20.2 µM (inactive)	79.1 µM (inactive)	18.9 µM (inactive)	15.7 µM (inactive)	> 100 µM (inactive)	34.7 µM (inactive)	> 100 µM (inactive)	30.3 µM (inactive)	–	–	29.2 µM (inactive)	–
O=C1Nc2cc([N+](=O)[O-])ccc2C(=O)N2CCC[C@@H]12	> 100 µM (inactive)	> 100 µM (inactive)	> 100 µM (inactive)	> 100 µM (inactive)	–	> 100 µM (inactive)	> 100 µM (inactive)	–	> 100 µM (inactive)	> 100 µM (inactive)	> 100 µM (inactive)	> 100 µM (inactive)	> 100 µM (inactive)	> 100 µM (inactive)	> 100 µM (inactive)	> 100 µM (inactive)	> 100 µM (inactive)	> 100 µM (inactive)	> 100 µM (inactive)	> 100 µM (inactive)
CN(C)C(=S)N/N=C\C=N/NC(=S)N(C)C	0.953 µM (active)	23.9 µM (inactive)	> 100 µM (inactive)	0.0918 µM (active)	0.182 µM (active)	0.112 µM (active)	0.321 µM (active)	3.29 µM (inactive)	1.65 µM (inactive)	1.75 µM (inactive)	0.361 µM (active)	2.64 µM (inactive)	0.158 µM (active)	–	–	0.349 µM (active)	–	6.97 µM (inactive)	0.552 µM (active)	0.22 µM (active)
N#CC(c1nc2ccccc2s1)c1ncnc(Cl)c1[N+](=O)[O-] (stereo not drawn)	29.2 µM (inactive)	–	22.9 µM (inactive)	36.3 µM (inactive)	19.4 µM (inactive)	17.5 µM (inactive)	17.3 µM (inactive)	18.2 µM (inactive)	17.3 µM (inactive)	22.9 µM (inactive)	–	20.6 µM (inactive)	> 100 µM (inactive)	–	12.6 µM (inactive)	15.8 µM (inactive)	–	30.3 µM (inactive)	19.9 µM (inactive)	18.9 µM (inactive)
COc1ccc(CNc2nc(NCc3ccc(OC)cc3)nc(Nc3ccccc3)n2)cc1	2.22 µM (inactive)	5 µM (inactive)	> 100 µM (inactive)	9.86 µM (inactive)	6.35 µM (inactive)	> 100 µM (inactive)	–	–	> 100 µM (inactive)	4.13 µM (inactive)	> 100 µM (inactive)	35.1 µM (inactive)	2.58 µM (inactive)	30.1 µM (inactive)	11.4 µM (inactive)	8.57 µM (inactive)	2.44 µM (inactive)	14.2 µM (inactive)	4.72 µM (inactive)	5.73 µM (inactive)
COc1cc(-c2c3c(cc4c2OCO4)[C@@H](Nc2ccc4c(c2)Cc2cc(N[C@@H]5c6cc7c(cc6C(c6cc(OC)c(O)c(OC)c6)[C@H]6C(=O)OC[C@H]56)OCO7)ccc2-4)[C@H]2COC(=O)[C@@H]2C3)cc(OC)c1O (stereo partly drawn)	13.7 µM (inactive)	–	35.1 µM (inactive)	47.2 µM (inactive)	14.8 µM (inactive)	51.2 µM (inactive)	51.3 µM (inactive)	13.3 µM (inactive)	10.2 µM (inactive)	> 100 µM (inactive)	–	48.8 µM (inactive)	20.3 µM (inactive)	> 100 µM (inactive)	21.8 µM (inactive)	18.5 µM (inactive)	> 100 µM (inactive)	0.977 µM (active)	15.5 µM (inactive)	–

Source: ChEMBL document CHEMBL1201862, “PubChem BioAssay data set” (2004)
